# Experimental data from BindingDB's records for doi:10.1111/cbdd.12744 (Southern Research Institute, 2016).
# Target: T1, Kinesin-like protein KIF11 [15-368] (Homo sapiens, UniProt P52732)
# T1 construct: 15-368
# T1 sequence (P52732 whole entry): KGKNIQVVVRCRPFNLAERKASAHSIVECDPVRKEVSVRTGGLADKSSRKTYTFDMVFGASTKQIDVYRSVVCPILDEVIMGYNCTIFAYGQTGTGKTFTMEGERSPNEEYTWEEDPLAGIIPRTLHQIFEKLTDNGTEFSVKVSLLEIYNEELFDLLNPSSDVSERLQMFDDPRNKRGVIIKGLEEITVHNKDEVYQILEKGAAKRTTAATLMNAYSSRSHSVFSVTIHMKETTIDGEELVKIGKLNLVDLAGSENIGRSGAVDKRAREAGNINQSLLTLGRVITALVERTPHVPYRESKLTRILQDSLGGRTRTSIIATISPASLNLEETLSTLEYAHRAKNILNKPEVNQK
# Assay: ADP Hunter Plus Assay
# Settings: pH 7; 25 °C
# Procedure: Compounds were first tested in triplicates at 100 uM; hit compounds were further tested with a 10-point twofold serial dilution to confirm their activity and determine their IC50 values. S-Trityl-L-cysteine (STLC), a selective Eg5 inhibitor(J. Biol. Chem. 2006, 281:17559-17569; Mol. Cancer Ther. 2004, 3:1079-1090), was used as the control compound. Specifically, 20 uL of 15 mM PIPES (pH 7.0) containing 1 mM MgCl2, 50 nM MT, 20 uM paclitaxel, 200 uM ATP, 5% DMSO, 60 nM Eg5 proteins, and 1:2 serial dilutions of each individual compound starting from 1000 uM were added to each well of a 96-well plate. The plate was incubated at room temperature for 0.5 h, and then, the ADP Hunter Plus reagents were added. The plate was further incubated for 0.5 h and then read for fluorescence (ex.530/em.590) on Synergy 4 (BioTek, Winooski, VT, USA).
row,SMILES,IC50 [µM]
1,Cc1ccc(C2C(C#N)=C(N)Nc3ncnn32)cc1 (stereo not drawn) [SRI35564],118
2,FC(F)(F)c1ccc(Nc2ncnc3[nH]ncc23)cc1 [SRI35565],78.9
3,O=C1CC(c2ccccc2)c2c(n3ncnc3[nH]c2=O)N1 (stereo not drawn) [SRI35566],65
